As a reminder, the Ki is the equilibrium dissociation constant of an inhibitor or competing ligand from its target. A lower Ki goes with higher affinity. The IC50 is the concentration that gives 50% inhibition. A lower IC50 goes with higher potency.

The target in test [1] is Neuronal acetylcholine receptor; alpha4/beta2 (Rattus norvegicus, UniProt P09483+P12390). As to the kind of experiment: Inhibition of [3H]NIC binding to alpha-4-beta-2 nAChR in rat brain membrane. Type of test: cell membranes.
The target of test [2] is Neuronal acetylcholine receptor subunit alpha-7 (Rattus norvegicus, UniProt Q05941). As to the kind of experiment: Inhibition of [3H]MLA binding to alpha-7 nAChR in rat brain membrane. Type of test: cell membranes.
Test [3] has as its target Sodium-dependent dopamine transporter (Rattus norvegicus, UniProt P23977). As to the kind of experiment: Inhibition of [3H]DA uptake at DAT in rat striatal synaptosomes. Format: subcellular, Brain.
Test [4] has as its target Sodium-dependent serotonin transporter (Rattus norvegicus, UniProt P31652). As to the kind of experiment: Inhibition of [3H]5-HT uptake at SERT in rat hippocampal synaptosomes. Format: subcellular, Hippocampus.
The target in test [5] is Synaptic vesicular amine transporter (Rattus norvegicus, UniProt Q01827). As to the kind of experiment: Inhibition of [3H]DTBZ binding to VMAT2 in rat synaptic vesicle membrane. Format: cell membranes.
Synaptic vesicular amine transporter, sequence (Q01827 whole entry): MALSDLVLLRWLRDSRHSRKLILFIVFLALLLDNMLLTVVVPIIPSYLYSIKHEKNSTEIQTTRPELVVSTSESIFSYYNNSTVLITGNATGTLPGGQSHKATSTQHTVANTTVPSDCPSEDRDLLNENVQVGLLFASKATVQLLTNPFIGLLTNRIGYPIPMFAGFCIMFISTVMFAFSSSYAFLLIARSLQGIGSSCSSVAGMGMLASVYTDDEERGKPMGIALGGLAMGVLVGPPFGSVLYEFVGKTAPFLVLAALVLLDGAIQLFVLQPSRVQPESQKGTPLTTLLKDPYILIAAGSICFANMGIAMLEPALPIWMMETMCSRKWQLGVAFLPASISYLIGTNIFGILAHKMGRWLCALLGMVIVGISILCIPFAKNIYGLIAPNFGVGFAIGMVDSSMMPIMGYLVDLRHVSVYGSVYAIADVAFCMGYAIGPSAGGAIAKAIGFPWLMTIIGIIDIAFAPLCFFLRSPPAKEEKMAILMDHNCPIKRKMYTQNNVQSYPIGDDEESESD

Neuronal acetylcholine receptor; alpha4/beta2, sequence (P09483 whole entry): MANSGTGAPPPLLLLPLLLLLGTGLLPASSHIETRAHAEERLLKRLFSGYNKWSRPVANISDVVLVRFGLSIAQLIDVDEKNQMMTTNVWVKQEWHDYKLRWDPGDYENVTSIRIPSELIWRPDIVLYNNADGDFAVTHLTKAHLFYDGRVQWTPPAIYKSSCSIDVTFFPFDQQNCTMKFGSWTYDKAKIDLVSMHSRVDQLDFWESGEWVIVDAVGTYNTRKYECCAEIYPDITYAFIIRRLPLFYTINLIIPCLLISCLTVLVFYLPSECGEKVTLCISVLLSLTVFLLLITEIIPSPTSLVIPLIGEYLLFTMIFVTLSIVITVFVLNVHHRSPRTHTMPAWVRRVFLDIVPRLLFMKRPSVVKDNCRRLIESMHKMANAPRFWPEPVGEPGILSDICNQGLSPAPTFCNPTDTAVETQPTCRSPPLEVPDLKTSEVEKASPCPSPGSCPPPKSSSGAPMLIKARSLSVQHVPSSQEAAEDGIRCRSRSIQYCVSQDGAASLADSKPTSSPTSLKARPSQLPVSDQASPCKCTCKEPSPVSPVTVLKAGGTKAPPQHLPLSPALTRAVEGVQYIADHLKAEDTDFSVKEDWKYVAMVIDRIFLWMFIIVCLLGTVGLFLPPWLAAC
Neuronal acetylcholine receptor; alpha4/beta2, sequence (P12390 whole entry): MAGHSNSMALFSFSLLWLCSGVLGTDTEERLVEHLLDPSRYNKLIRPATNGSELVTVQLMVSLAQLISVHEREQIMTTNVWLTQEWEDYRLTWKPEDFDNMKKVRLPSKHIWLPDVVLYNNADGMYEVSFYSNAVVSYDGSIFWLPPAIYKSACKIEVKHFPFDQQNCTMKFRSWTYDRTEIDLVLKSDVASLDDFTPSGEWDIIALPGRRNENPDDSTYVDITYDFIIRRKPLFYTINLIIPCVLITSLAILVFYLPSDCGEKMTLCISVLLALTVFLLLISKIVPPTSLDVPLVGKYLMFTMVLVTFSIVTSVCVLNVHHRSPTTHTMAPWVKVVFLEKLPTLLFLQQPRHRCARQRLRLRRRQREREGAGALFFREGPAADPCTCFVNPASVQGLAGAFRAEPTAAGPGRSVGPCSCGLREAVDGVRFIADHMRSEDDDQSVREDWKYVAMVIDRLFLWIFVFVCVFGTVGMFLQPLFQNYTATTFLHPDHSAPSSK
Sodium-dependent serotonin transporter, sequence (P31652 whole entry): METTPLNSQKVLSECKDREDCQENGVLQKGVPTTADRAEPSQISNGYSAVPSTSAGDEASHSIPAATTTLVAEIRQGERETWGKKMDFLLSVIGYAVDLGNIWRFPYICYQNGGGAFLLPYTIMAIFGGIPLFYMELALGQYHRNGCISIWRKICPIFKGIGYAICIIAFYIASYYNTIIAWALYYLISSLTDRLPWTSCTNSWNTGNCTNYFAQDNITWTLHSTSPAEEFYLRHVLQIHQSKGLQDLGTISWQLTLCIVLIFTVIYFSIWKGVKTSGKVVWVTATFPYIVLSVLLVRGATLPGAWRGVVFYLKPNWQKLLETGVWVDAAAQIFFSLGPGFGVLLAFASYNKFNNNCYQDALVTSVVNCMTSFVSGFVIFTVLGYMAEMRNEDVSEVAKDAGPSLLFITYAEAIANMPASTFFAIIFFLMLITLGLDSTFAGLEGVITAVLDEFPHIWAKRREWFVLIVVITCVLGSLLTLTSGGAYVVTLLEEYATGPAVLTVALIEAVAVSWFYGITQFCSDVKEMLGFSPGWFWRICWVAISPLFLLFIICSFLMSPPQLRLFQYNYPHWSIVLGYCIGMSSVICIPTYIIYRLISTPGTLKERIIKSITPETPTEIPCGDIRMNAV
Sodium-dependent dopamine transporter, sequence (P23977 whole entry): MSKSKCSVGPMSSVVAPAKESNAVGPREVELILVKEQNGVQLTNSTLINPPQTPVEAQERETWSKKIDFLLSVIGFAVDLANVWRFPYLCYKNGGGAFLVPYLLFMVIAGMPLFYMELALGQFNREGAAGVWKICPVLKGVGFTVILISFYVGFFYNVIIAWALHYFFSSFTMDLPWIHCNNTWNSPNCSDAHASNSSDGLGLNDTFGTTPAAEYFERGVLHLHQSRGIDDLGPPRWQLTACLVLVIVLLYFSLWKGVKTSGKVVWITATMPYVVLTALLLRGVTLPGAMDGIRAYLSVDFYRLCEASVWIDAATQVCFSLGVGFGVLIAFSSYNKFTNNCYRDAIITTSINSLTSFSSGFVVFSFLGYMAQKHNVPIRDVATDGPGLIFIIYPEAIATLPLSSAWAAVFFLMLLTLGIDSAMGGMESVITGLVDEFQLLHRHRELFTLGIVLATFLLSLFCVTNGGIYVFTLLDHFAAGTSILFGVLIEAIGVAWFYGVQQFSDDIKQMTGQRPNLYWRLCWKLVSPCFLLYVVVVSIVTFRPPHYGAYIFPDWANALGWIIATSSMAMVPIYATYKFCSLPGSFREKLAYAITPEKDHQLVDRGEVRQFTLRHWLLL
Neuronal acetylcholine receptor subunit alpha-7, sequence (Q05941 whole entry): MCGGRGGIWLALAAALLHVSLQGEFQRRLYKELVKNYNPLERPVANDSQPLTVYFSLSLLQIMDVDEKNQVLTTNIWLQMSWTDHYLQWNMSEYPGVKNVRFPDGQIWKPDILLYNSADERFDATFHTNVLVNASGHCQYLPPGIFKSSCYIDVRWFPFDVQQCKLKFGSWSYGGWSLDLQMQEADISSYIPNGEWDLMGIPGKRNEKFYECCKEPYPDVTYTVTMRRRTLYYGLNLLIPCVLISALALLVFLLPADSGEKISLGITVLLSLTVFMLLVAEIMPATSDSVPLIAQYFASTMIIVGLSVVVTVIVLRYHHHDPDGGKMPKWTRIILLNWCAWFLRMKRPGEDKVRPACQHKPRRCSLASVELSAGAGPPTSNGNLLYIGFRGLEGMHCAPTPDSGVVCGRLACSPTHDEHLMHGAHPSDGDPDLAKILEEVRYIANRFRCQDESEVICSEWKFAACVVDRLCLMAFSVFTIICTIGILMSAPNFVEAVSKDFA

Consider `CN1[C@@H](CCc2ccccc2)CCC[C@H]1C[C@H](O)c1ccccc1`, for which the Ki in test [1] was 1.77 µM; in test [2], 39.3 µM; in test [3] it was 1.39 µM; in test [4] it was 4.27 µM; in test [5] it was 3.09 µM.
The compound `CN1[C@H](C[C@H](O)c2ccccc2)CCC[C@@H]1/C=C/c1ccccc1` returned an IC50 in test [2] of more than 100 µM. Besides, the values for the Ki in test [3] and in test [4] were 0.11 µM and 19 µM, respectively.
Regarding `CN1[C@@H](CCc2ccccc2)CCC[C@H]1C[C@@H](O)c1ccccc1`, the IC50 in test [1] and in test [2] was more than 100 µM each time. Further, the values for the Ki in test [3], in test [4] and in test [5] were 0.57 µM, 7.3 µM and 6.6 µM, respectively.
In the case of `CN1[C@@H](C[C@H](O)c2ccccc2)CCC[C@H]1/C=C/c1ccccc1`, the IC50 in test [1] and in test [2] was more than 100 µM throughout. The Ki was found to be 0.96 µM in test [3] and 3.75 µM in test [4].
In test [5], `CCC1(O)CC2c3cc(OC)c(OC)cc3CCN2CC1CC(C)C` (configuration not stated) gave a Ki of 0.028 µM.
Turning to `CN1[C@H](C[C@@H](O)c2ccccc2)CCC[C@@H]1/C=C/c1ccccc1`, the IC50 in test [1] and in test [2] was more than 100 µM throughout. The Ki in test [3] came to 0.29 µM; in test [4], 7.5 µM.
Consider `CN1[C@H](CCc2ccccc2)CCC[C@@H]1C[C@H](O)c1ccccc1`, for which the Ki worked out at 33.6 µM in test [1], 1.26 µM in test [3], 2.22 µM in test [4] and 3.01 µM in test [5]. For the same compound, in test [2], the IC50 is more than 100 µM.
For `CN1[C@@H](C[C@@H](O)c2ccccc2)CCC[C@H]1/C=C/c1ccccc1`, the Ki is 4.19 µM in test [1], 1.7 µM in test [2] and 0.044 µM in test [4].
On to `CN1[C@H](CCc2ccccc2)CCC[C@@H]1C[C@@H](O)c1ccccc1` [8R-hydroxylobelane], for which the Ki in test [1] was 2.36 µM; in test [2] it was 1.21 µM; in test [3], 1.88 µM; in test [4], 0.15 µM; in test [5] it was 1.98 µM.
In the case of `CN1[C@@H](CC(=O)c2ccccc2)CCC[C@H]1C[C@H](O)c1ccccc1` [LOBELINE], the figures for the Ki in test [3] and in test [4] were 28.2 µM and 46.8 µM, respectively.

Values taken from ChEMBL document CHEMBL1149505 (Bioorg Med Chem Lett, 2006).
